The text below walks through data of patent US9527830B2 (Merck Sharp & Dohme Corp., priority 2011, dated 2016).

Some results are limits rather than exact numbers.

One assay has as its target T1, hROMK1 (Kir1.1) (Homo sapiens, UniProt P48048).
T1 construct: expressed in transfected cells
T1 sequence (P48048 1-391): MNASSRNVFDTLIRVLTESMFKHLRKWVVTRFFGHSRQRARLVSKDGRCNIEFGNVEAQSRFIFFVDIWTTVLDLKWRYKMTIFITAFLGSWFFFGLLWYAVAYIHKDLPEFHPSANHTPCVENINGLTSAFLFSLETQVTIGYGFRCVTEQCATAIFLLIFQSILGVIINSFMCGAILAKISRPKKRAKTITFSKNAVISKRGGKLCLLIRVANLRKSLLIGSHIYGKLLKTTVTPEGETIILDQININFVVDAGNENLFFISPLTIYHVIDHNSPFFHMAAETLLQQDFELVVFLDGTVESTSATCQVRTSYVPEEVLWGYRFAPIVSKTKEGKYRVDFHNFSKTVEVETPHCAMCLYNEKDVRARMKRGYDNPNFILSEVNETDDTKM
Nature of the assay: ^86Rb^+ Efflux Assay. It counts as cell-based. The conditions noted are these: CHO-DHFR- cells stably expressing hROMK1; potency ranges.

The next assay concerns the target T2, hROMK (hKir1.1) (Homo sapiens, UniProt P48048).
T2 construct: expressed in transfected cells
T2 sequence (P48048 1-391): T1 sequence (P48048 1-391)
Nature of the assay: Thallium Flux Assay (FluxOR, FLIPR-Tetra). It counts as cell-based. To be noted: HEK293 cells stably expressing hROMK; potency ranges. As to the method:
Several assays may be used to measure functional inhibition of the ROMK channel by compounds of the instant invention. One primary assay that can be used is a functional ^86Rb^+ efflux assay that measures the ability of ROMK to permeate ^86Rb^+, in the absence or presence of test compound. Under control conditions, cells loaded with ^86Rb^+ and incubated in Rb^+-free medium display a time-dependent efflux of the isotope, the rate of which depends on number of functional channels. When cells are incubated in the presence of a channel inhibitor, efflux of ^86Rb^+ is prevented in a concentration-dependent manner, and IC50 values of inhibition by compounds can be accurately determined. This assay has been established with cell lines expressing either human, rat or dog ROMK channels, and can operate in 96- or 384-well format. Importantly, the human, rat, and dog ^86Rb^+ efflux assays can be carried out in the presence of up to 100% serum allowing, therefore, an accurate estimation of the effect of protein binding on the inhibitory activity of compounds of interest. Another ROMK functional assay makes use of the ability of thallium to permeate through open ROMK channels and increase the fluorescence of a dye previously loaded into the cells. Under control conditions, cells loaded with dye and exposed to thallium-containing medium display a time-dependent increase in fluorescence, the rate of which depends on number of functional channels. When cells are incubated in the presence of a channel inhibitor, the increase in fluorescence is attenuated in a concentration-dependent manner, and IC50 values of inhibition by compounds can be accurately determined. This assay has been established with cell lines expressing either human, or rat ROMK channels, and operates in 384-well format. Another assay for evaluation of the compounds of the instant invention and for evaluation of mechanism of action of compounds of Formula I relies on the measurement of the electrical current that is generated as potassium permeates through the channel. For these electrophysiological experiments, three different platforms, IonWorks, QPatch, or manual patch clamp, are used, depending on the experimental protocol under consideration. IonWorks operates in a 384-well format and allows accurate determination of IC50 values for inhibitors.
HEK293 cells stably expressing hROMK (hKir1.1) were grown at 37° C. in a 10% CO2 humidified incubator in complete growth media: Dulbecco's Modified Eagle Medium supplemented with non-essential amino acids, Penicillin/Streptomycin/Glutamine, G418 and FBS. At >80% confluency, media was aspirated from the flask and rinsed with 10 ml Calcium/Magnesium-free PBS. 5 ml of 1× trypsin (prepared in Ca/Mg Free PBS) was added to T-225 flask and flask returned to 37° C./CO2 incubator for 2-3 minutes. To dislodge the cell, the side of the flask was gently banged by hand. Cells were completely triturated and then transferred to 25 ml complete media, and centrifuged at 1,500 rpm for 6 min followed by resuspension in complete growth media and cell concentration determined. For typical re-seeding, 4E6 cells/T-225 flask attained >80% confluency in 4 days. Under ideal growth conditions and appropriate tissue culture practices, this cell line was stable for 40-45 passages.
FluxOR™ Kit Components (Invitrogen F10017)
• FluxOR™ Reagent (Component A) • FluxOR™ Assay Buffer (Component B)—10× Concentrate • PowerLoad™ Concentrate (Component C)—100× Concentrate • Probenecid (Component D)—Lyophilized sample was kept at −20° C. Water soluble, 100× after solubilization in 1 ml water. Store at 4° C. • FluxOR™ Chloride-free Buffer (Component E)—5× Concentrate • Potassium sulfate (K2SO4) Concentrate (Component F)—125 mM in water. Stored at 4° C. • Thallium sulfate (Tl2SO4) Concentrate (Component G)—50 mM in water. […]

For `Cc1c(CCN2CCC(NCc3ccc4c(c3)COC4=O)CC2)ccc2c1COC2=O` [Example 88, 4-Methyl-5-[2-(4-{[(1-oxo-1,3-dihydro-2-benzofuran-5-yl)methyl]amino}piperidin-1-yl)ethyl]-2-benzofuran-1(3H)-one], the results for the IC50 against hROMK1 (Kir1.1) and against hROMK (hKir1.1) were at most 200 nM and at most 100 nM, respectively.
The corresponding values for `O=C1OCc2cc(SC3CCN(CC(O)c4ccc5c(c4)COC5=O)CC3)ccc21` (stereo not drawn) [Example 85, 5-({1-[2-hydroxy-2-(1-oxo-1,3-dihydro-2-benzofuran-5-yl)ethyl]piperidin-4-yl}sulfanyl)-2-benzofuran-1(3H)-one] are at most 500 nM and at most 200 nM.
For `Cc1c(CC(O)C2CCN(C[C@H](O)c3ccc4c(c3C)COC4=O)CC2)ccc2c1COC2=O` (stereo partly drawn) [Example 87, 5-[(1R)-1-Hydroxy-2-{4-[1-hydroxy-2-(4-methyl-1-oxo-1,3-dihydro-2-benzofuran-5-yl)ethyl]piperidin-1-yl}ethyl]-4-methyl-2-benzofuran-1(3H)-one], in that order: at most 200 nM and at most 100 nM.
